Test results: patent publication US9802895B2, “Indole and benzimidazolecarboxamides as insecticides and acaricides” (BAYER CROPSCIENCE AKTIENGESELLSCHAFT, priority 2014, dated 2017)

Experiments:
[1] = test system: engorged adult female cattle ticks (Boophilus microplus); assay: Boophilus microplus injection test (BOOPMI inj); assay type: in vivo; details: assessed after 7 days
Description: Boophilus microplus Injection Test (BOOPMI inj) Solvent: dimethyl sulphoxide To produce a suitable active compound formulation, 10 mg of active compound are mixed with 0.5 ml of solvent and the concentrate is diluted with solvent to the desired concentration. 1 μl of the active compound solution is injected into the abdomen of 5 engorged adult female cattle ticks (Boophilus microplus). The animals are transferred into dishes and kept in a climate-controlled room. The efficacy is assessed after 7 days by laying of fertile eggs. Eggs which are not visibly fertile are stored in a climate-controlled cabinet until the larvae hatch after about 42 days. An efficacy of 100% means that none of the ticks has laid any fertile eggs; 0% means that all the eggs are fertile.

[2] = test system: adult cat fleas (Ctenocephalides felis); assay: Ctenocephalides felis oral test (CTECFE); assay type: in vivo; details: 100 ppm, oral in cattle blood, after 2 days
Description: Ctenocephalides felis-Oral Test ([…]) Solvent: dimethyl sulphoxide To produce a suitable active compound formulation, 10 mg of active compound are mixed with 0.5 ml of dimethyl sulphoxide. Dilution with citrated cattle blood gives the desired concentration. About 20 unfed adult cat fleas (Ctenocephalides felis) are placed into a chamber which is closed at the top and bottom with gauze. A metal cylinder whose bottom end is closed with parafilm is placed onto the chamber. The cylinder contains the blood/active compound preparation, which can be imbibed by the fleas through the parafilm membrane. After 2 days, the kill in % is determined 100% means that all of the fleas have been killed; 0% means that none of the fleas have been killed.

[3] = test system: L1 larvae of the Australian sheep blowfly (Lucilia cuprina); assay: Lucilia cuprina test (LUCICU); assay type: in vivo; details: 100 ppm, after 2 days
Description: Lucilia cuprina Test (LUCICU) Solvent: dimethyl sulphoxide To produce a suitable active compound formulation, 10 mg of active compound are mixed with 0.5 ml of dimethyl sulphoxide, and the concentrate is diluted with water to the desired concentration. About 20 L1 larvae of the Australian sheep blowfly (Lucilia cuprina) are transferred into a test vessel containing minced horsemeat and the active compound preparation of the desired concentration. After 2 days, the kill in % is determined 100% means that all the larvae have been killed; 0% means that none of the larvae have been killed.

[4] = test system: adult houseflies (Musca domestica); assay: Musca domestica test (MUSCDO); assay type: in vivo; details: 100 ppm, after 2 days
Description: Musca domestica Test (MUSCDO) Solvent: dimethyl sulphoxide To produce a suitable active compound formulation, 10 mg of active compound are mixed with 0.5 ml of dimethyl sulphoxide, and the concentrate is diluted with water to the desired concentration. Vessels containing a sponge treated with sugar solution and the active compound preparation of the desired concentration are populated with 10 adult houseflies (Musca domestica). After 2 days, the kill in % is determined. 100% means that all of the flies have been killed; 0% means that none of the flies have been killed.

[5] = test system: larvae of the mustard beetle (Phaedon cochleariae); assay: Phaedon cochleariae spray test (PHAECO); assay type: in vivo; details: after 7 days
Description: Phaedon cochleariae—Spray Test (PHAECO)
(§1) Solvent: 78.0 parts by weight of acetone • • 1.5 parts by weight of dimethylformamide
(§2) Emulsifier: alkylaryl polyglycol ether
(§3) To produce a suitable active compound formulation, 1 part by weight of active compound is dissolved using the specified parts by weight of solvent and made up with water containing an emulsifier concentration of 1000 ppm until the desired concentration is attained. To produce further test concentrations, the preparation is diluted with emulsifier-containing water.
After 7 days, the efficacy in % is determined. 100% means that all the beetle larvae have been killed; 0% means that no beetle larvae have been killed.

[6] = test system: caterpillars of the armyworm (Spodoptera frugiperda); assay: Spodoptera frugiperda spray test (SPODFR); assay type: in vivo; details: for efficacy: 100 g/ha, spray, after 7 days; for % efficacy: SPODFR, 7 dat
Description: Spodoptera frugiperda—Spray Test (SPODFR) Solvent: 78.0 parts by weight of acetone • • 1.5 parts by weight of dimethylformamide Emulsifier: alkylaryl polyglycol ether To produce a suitable active compound formulation, 1 part by weight of active compound is dissolved using the specified parts by weight of solvent and made up with water containing an emulsifier concentration of 1000 ppm until the desired concentration is attained. To produce further test concentrations, the preparation is diluted with emulsifier-containing water. Leaf discs of maize (Zea mays) are sprayed with an active compound formulation of the desired concentration and, after drying, populated with caterpillars of the armyworm (Spodoptera frugiperda). After 7 days, the efficacy in % is determined 100% means that all the caterpillars have been killed; 0% means that no caterpillars have been killed. Spodoptera frugiperda—Spray Test (SPODFR) Solvent: 78.0 parts by weight of acetone • • 1.5 parts by weight of dimethylformamide Emulsifier: alkylaryl polyglycol ether To produce a suitable active compound formulation, 1 part by weight of active compound is dissolved using the specified parts by weight of solvent and made up with water containing an emulsifier concentration of 1000 ppm until the desired concentration is attained. To produce further test concentrations, the preparation is diluted with emulsifier-containing water. Leaf discs of maize (Zea mays) are sprayed with an active compound formulation of the desired concentration and, after drying, populated with caterpillars of the armyworm (Spodoptera frugiperda). After the desired period of time, the efficacy in % is determined. 100% means that all the caterpillars have been killed; 0% means that no caterpillars have been killed.

[7] = test system: greenhouse red spider mite (Tetranychus urticae); assay: Tetranychus urticae spray test, OP-resistant (TETRUR); assay type: in vivo; details: 100 g/ha, spray, after 6 days
Description: Tetranychus urticae—Spray Test, OP-Resistant (TETRUR)
as §1, §2, §3
Discs of bean leaves (Phaseolus vulgaris) infested by all stages of the greenhouse red spider mite (Tetranychus urticae) are sprayed with an active compound formulation of the desired concentration.
After 6 days, the efficacy in % is determined 100% means that all the spider mites have been killed; 0% means that none of the spider mites have been killed.
Tetranychus urticae—Spray Test; OP-Resistant (TETRUR)
After the desired period of time, the efficacy in % is determined 100% means that all the spider mites have been killed; 0% means that none of the spider mites have been killed.

[8] = log P by HPLC (EEC directive 79/831 Annex V.A8); assay type: physicochemical; details: HPLC, reversed-phase column (C18), 43° C., acidic range pH 2.7
Description: a) The determination of the M^+ by LC-MS in the acidic range is effected at pH 2.7, acetonitrile (contains 0.1% formic acid) and water as eluents; linear gradient from 10% acetonitrile to 95% acetonitrile, instrument: Agilent 1100 LC system, Agilent MSD system, HTS PAL. The log P values reported in the tables and Preparation Examples above were determined in accordance with EEC directive 79/831 Annex V.A8 by HPLC (High Performance Liquid Chromatography) using a reversed-phase column (C18). Temperature 43° C. The calibration is effected with unbranched alkan-2-ones (having 3 to 16 carbon atoms), for which the logP values are known.

CCn1c(C(=O)NC(c2cc(Cl)c(F)c(Cl)c2F)C(F)(F)F)cc2cc(C(=O)NC3(C(N)=S)CC3)c(Cl)cc21 (single isomer, unassigned) [I-17]
efficacy (laying of fertile eggs) [1]: 100% | efficacy (kill in %) [2]: 100% | efficacy (kill in %) [3]: 90% | efficacy (kill in %) [4]: 80% | efficacy ([5]; 100 g/ha): 100% | efficacy [6]: 100% | efficacy [7]: 100% | log P [8]: 4.27;

CCn1c(C(=O)NC(c2cc(Cl)c(F)c(Cl)c2F)C(F)(F)F)cc2cc(C(=O)NC3(C(N)=S)CC3)c(Cl)cc21 (single isomer, unassigned) [I-18]
efficacy (laying of fertile eggs) [1]: 100% | efficacy (kill in %) [2]: 100% | efficacy (kill in %) [3]: 100% | efficacy (kill in %) [4]: 100% | efficacy ([5]; 100 g/ha): 100% | efficacy [6]: 100% | % efficacy ([6]; 0.8 g/ha): 100% | % efficacy ([6]; 4 g/ha): 100% | efficacy [7]: 100% | log P [8]: 4.27;

CCn1c(C(=O)NC(c2ccc(F)c(Br)c2)C(F)(F)F)cc2cc(C(=O)NC3(C(N)=S)CC3)c(Cl)cc21 (stereo not shown) [I-06]
efficacy ([5]; 100 g/ha): 100% | efficacy [6]: 100% | % efficacy ([6]; 0.8 g/ha): 100% | % efficacy ([6]; 4 g/ha): 100% | efficacy [7]: 100% | log P [8]: 3.64

Cn1c(C(=O)NC(c2cc(Cl)c(F)c(Cl)c2F)C(F)(F)F)cc2cc(C(=O)NC3(C(N)=S)CC3)c(Cl)cc21 (stereo not shown) [I-08]
efficacy (laying of fertile eggs) [1]: 100% | efficacy (kill in %) [2]: 100% | efficacy (kill in %) [3]: 100% | efficacy ([5]; 100 g/ha): 100% | efficacy [6]: 100% | % efficacy ([6]; 0.8 g/ha): 100% | % efficacy ([6]; 4 g/ha): 100% | efficacy [7]: 100% | log P [8]: 3.94

CCn1c(C(=O)NC(c2cccc(Cl)c2F)C(F)(F)F)cc2cc(C(=O)NC3(C(N)=S)CC3)c(Cl)cc21 (stereo not shown) [I-11]
efficacy (laying of fertile eggs) [1]: 100% | efficacy (kill in %) [2]: 100% | efficacy ([5]; 100 g/ha): 100% | efficacy [6]: 100% | efficacy [7]: 100% | log P [8]: 3.69

C#CCn1c(C(=O)NC(c2cc(Cl)c(F)c(Cl)c2F)C(F)(F)F)cc2cc(C(=O)NC3(C(N)=S)CC3)c(Cl)cc21 (stereo not shown) [I-12]
efficacy (laying of fertile eggs) [1]: 100% | efficacy (kill in %) [2]: 100% | efficacy (kill in %) [3]: 100% | efficacy (kill in %) [4]: 100% | efficacy ([5]; 100 g/ha): 100% | efficacy [6]: 100% | % efficacy ([6]; 0.8 g/ha): 100% | % efficacy ([6]; 4 g/ha): 100% | log P [8]: 3.94

C#CCn1c(C(=O)NC(c2cc(Cl)c(F)c(Cl)c2)C(F)(F)F)cc2cc(C(=O)NC3(C(N)=S)CC3)c(Cl)cc21 (stereo not shown) [I-14]
efficacy ([5]; 100 g/ha): 100% | efficacy [6]: 100% | efficacy [7]: 100% | log P [8]: 3.81

Cn1c(C(=O)NC(c2cc(Cl)c(F)c(Cl)c2)C(F)(F)F)cc2cc(C(=O)NC3(C(N)=S)CC3)c(Cl)cc21 (stereo not shown) [I-15]
efficacy ([5]; 20 g/ha): 100% | efficacy [6]: 100% | % efficacy ([6]; 0.8 g/ha): 83% | % efficacy ([6]; 4 g/ha): 100% | efficacy [7]: 90% | log P [8]: 3.76

C#CCn1c(C(=O)NC(c2cc(Cl)c(Cl)c(Cl)c2)C(F)(F)F)cc2cc(C(=O)NC3(C(N)=S)CC3)c(Cl)cc21 (stereo not shown) [I-21]
efficacy ([5]; 100 g/ha): 100% | efficacy [6]: 100% | % efficacy ([6]; 0.8 g/ha): 100% | % efficacy ([6]; 4 g/ha): 100% | efficacy [7]: 100% | log P [8]: 4.09

CCn1c(C(=O)NC(c2cc(F)cc(F)c2)C(F)F)cc2cc(C(=O)NC3(C(N)=S)CC3)c(Cl)cc21 (stereo not shown) [I-23]
efficacy (laying of fertile eggs) [1]: 100% | efficacy (kill in %) [2]: 100% | efficacy (kill in %) [3]: 90% | efficacy ([5]; 100 g/ha): 100% | efficacy [6]: 83% | efficacy [7]: 100% | log P [8]: 3.07

CCn1c(C(=O)NC(c2ccc(Cl)c(Cl)c2)C(F)F)cc2cc(C(=O)NC3(C(N)=S)CC3)c(Cl)cc21 (stereo not shown) [I-25]
efficacy (laying of fertile eggs) [1]: 100% | efficacy (kill in %) [2]: 100% | efficacy (kill in %) [3]: 100% | efficacy ([5]; 100 g/ha): 100% | efficacy [6]: 100% | efficacy [7]: 100% | log P [8]: 3.54

CCn1c(C(=O)NC(c2cc(Cl)c(F)c(Cl)c2F)C(F)F)cc2cc(C(=O)NC3(C(N)=S)CC3)c(Cl)cc21 (stereo not shown) [I-28]
efficacy ([5]; 100 g/ha): 100% | efficacy [6]: 100% | efficacy [7]: 100% | log P [8]: 3.90
